From ChEMBL document CHEMBL1134042, “[Lys3]Didemnins as potential affinity ligands” (Bioorg Med Chem Lett, 2001) come the findings set out here.

The nature of experiment [1]: Total growth inhibition of NCI-60 human tumor cells by the compound was evaluated. The experiment is classed as functional.
Experiment [2] in a line: Antiproliferative activity as 50% growth inhibition of NCI-60 human tumor cells. Type of experiment: functional.
Experiment [3] can be described thus: Cell free protein biosynthesis inhibition activity was determined. Type of experiment: functional, Homo sapiens.
Experiment [4] in a line: Cytotoxicity in NCI-60 human tumor cells. The experiment is classed as functional. The note with it: read-out: LC50 (the source's name).

As usually defined, the TGI is the concentration at which net growth stops. The GI50 is the concentration at which growth is held to half of that of the control. In general, IC50 refers to the midpoint of a concentration-inhibition curve. Lower therefore signals greater potency in that assay. The molecule `CC[C@H](C)[C@H]1NC(=O)[C@@H](NC(=O)[C@@H](CC(C)C)N(C)C(=O)[C@@H]2CCCN2C(=O)C(C)O)[C@@H](C)OC(=O)[C@H](Cc2ccc(OC)cc2)N(C)C(=O)[C@@H]2CCCN2C(=O)[C@H](CCCCN)NC(=O)[C@@H](C)C(=O)[C@H](C(C)C)OC(=O)C[C@@H]1O` (some centres undefined) returned a TGI in experiment [1] of 22 µM. In experiment [2], this molecule displayed a GI50 of 6.4 µM. In experiment [3], this molecule had an IC50 of 154 µM. In experiment [4], the CC50 was 25 µM.
